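Results reflect a 48-hour exposure of cells in 96-well plates to compound at five concentrations. Definition used: TGI = concentration required for complete inhibition of growth.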
Experiments:
Assay in all cases: growth of human tumour cells (NCI), 48 h
UACC-62 melanoma = system: UACC-62 melanoma
MALME-3M melanoma = system: MALME-3M melanoma
OVCAR-5 ovarian = system: OVCAR-5 ovarian
SW-620 colon = system: SW-620 colon
MOLT-4 leukemia = system: MOLT-4 leukemia
SR leukemia = system: SR leukemia
ACHN renal = system: ACHN renal
NCI-H522 lung = system: NCI-H522 lung
NCI-H23 lung = system: NCI-H23 lung
MDA-MB-435 = system: MDA-MB-435
SK-MEL-5 melanoma = system: SK-MEL-5 melanoma
SF-295 CNS = system: SF-295 CNS
COLO 205 colon = system: COLO 205 colon
K-562 leukemia = system: K-562 leukemia
HS 578T breast = system: HS 578T breast
IGROV1 ovarian = system: IGROV1 ovarian
KM12 colon = system: KM12 colon
UO-31 renal = system: UO-31 renal
NCI/ADR-RES ovarian = system: NCI/ADR-RES ovarian
SF-268 CNS = system: SF-268 CNS
MDA-MB-231 breast = system: MDA-MB-231 breast
SK-MEL-2 melanoma = system: SK-MEL-2 melanoma
MCF7 breast = system: MCF7 breast
SK-MEL-28 melanoma = system: SK-MEL-28 melanoma
OVCAR-4 ovarian = system: OVCAR-4 ovarian
OVCAR-3 ovarian = system: OVCAR-3 ovarian
SK-OV-3 ovarian = system: SK-OV-3 ovarian
SN12C renal = system: SN12C renal
LOX IMVI melanoma = system: LOX IMVI melanoma
786-0 renal = system: 786-0 renal
CAKI-1 renal = system: CAKI-1 renal
RXF 393 renal = system: RXF 393 renal
DU-145 prostate = system: DU-145 prostate
PC-3 prostate = system: PC-3 prostate
T-47D breast = system: T-47D breast
UACC-257 melanoma = system: UACC-257 melanoma
M14 melanoma = system: M14 melanoma
HCT-116 colon = system: HCT-116 colon
SF-539 CNS = system: SF-539 CNS
NCI-H226 lung = system: NCI-H226 lung
HOP-62 NSCLC = system: HOP-62 NSCLC
TK-10 renal = system: TK-10 renal
U251 CNS = system: U251 CNS
HCT-15 colon = system: HCT-15 colon
EKVX NSCLC = system: EKVX NSCLC
BT-549 breast = system: BT-549 breast
SNB-75 CNS = system: SNB-75 CNS
OVCAR-8 ovarian = system: OVCAR-8 ovarian
CCRF-CEM leukemia = system: CCRF-CEM leukemia
A549 NSCLC = system: A549 NSCLC
HCC-2998 colon = system: HCC-2998 colon
RPMI-8226 leukemia = system: RPMI-8226 leukemia
SNB-19 CNS = system: SNB-19 CNS
HT29 colon = system: HT29 colon
NCI-H460 lung = system: NCI-H460 lung

Structure (SMILES): COc1ccc(S(=O)Cc2cc(OC)c(OC)c(OC)c2)cc1 (stereo not given)
- TGI (UACC-62 melanoma): > 100 µM
- TGI (MALME-3M melanoma): > 100 µM
- TGI (OVCAR-5 ovarian): > 100 µM
- TGI (SW-620 colon): > 100 µM
- TGI (MOLT-4 leukemia): > 100 µM
- TGI (SR leukemia): > 100 µM
- TGI (ACHN renal): > 100 µM
- TGI (NCI-H522 lung): > 100 µM
- TGI (NCI-H23 lung): > 100 µM
- TGI (MDA-MB-435): 35.7 µM
- TGI (SK-MEL-5 melanoma): > 100 µM
- TGI (SF-295 CNS): > 100 µM
- TGI (COLO 205 colon): > 100 µM
- TGI (K-562 leukemia): > 100 µM
- TGI (HS 578T breast): > 100 µM
- TGI (IGROV1 ovarian): > 100 µM
- TGI (KM12 colon): > 100 µM
- TGI (UO-31 renal): > 100 µM
- TGI (NCI/ADR-RES ovarian): > 100 µM
- TGI (SF-268 CNS): > 100 µM
- TGI (MDA-MB-231 breast): > 100 µM
- TGI (SK-MEL-2 melanoma): > 100 µM
- TGI (MCF7 breast): > 100 µM
- TGI (SK-MEL-28 melanoma): > 100 µM
- TGI (OVCAR-4 ovarian): > 100 µM
- TGI (OVCAR-3 ovarian): > 100 µM
- TGI (SK-OV-3 ovarian): > 100 µM
- TGI (SN12C renal): > 100 µM
- TGI (LOX IMVI melanoma): > 100 µM
- TGI (786-0 renal): > 100 µM
- TGI (CAKI-1 renal): > 100 µM
- TGI (RXF 393 renal): > 100 µM
- TGI (DU-145 prostate): > 100 µM
- TGI (PC-3 prostate): > 100 µM
- TGI (T-47D breast): > 100 µM
- TGI (UACC-257 melanoma): > 100 µM
- TGI (M14 melanoma): > 100 µM
- TGI (HCT-116 colon): > 100 µM
- TGI (SF-539 CNS): > 100 µM
- TGI (NCI-H226 lung): > 100 µM
- TGI (HOP-62 NSCLC): > 100 µM
- TGI (TK-10 renal): > 100 µM
- TGI (U251 CNS): > 100 µM
- TGI (HCT-15 colon): > 100 µM
- TGI (EKVX NSCLC): > 100 µM
- TGI (BT-549 breast): > 100 µM
- TGI (SNB-75 CNS): > 100 µM
- TGI (OVCAR-8 ovarian): > 100 µM
- TGI (CCRF-CEM leukemia): > 100 µM
- TGI (A549 NSCLC): > 100 µM
- TGI (HCC-2998 colon): > 100 µM
- TGI (RPMI-8226 leukemia): > 100 µM
- TGI (SNB-19 CNS): > 100 µM
- TGI (HT29 colon): > 100 µM
- TGI (NCI-H460 lung): > 100 µM
